The record followed here is ChEMBL document CHEMBL4368865, “Synthesis, characterization and cytotoxic activity evaluation of ginsengdiol oxidation and nitrogen hybrid derivatives” (Medchemcomm, 2018).

What is called IC50 is the concentration needed to halve the response being measured.

System in the first assay: not listed separately
As to the kind of experiment: Cytotoxicity against human 8901 cells assessed as inhibition of cell proliferation after 48 hrs by MTT assay.
Conditions: not given
The class given is functional, cell-based. On the technique in general: Formazan colour is commonly taken as a measure of viable cells.
With `CC(C)(O)CCC[C@@](C)(O)[C@H]1CC[C@]2(C)[C@@H]1C(=O)C[C@@H]1[C@@]3(C)Cc4nccnc4C(C)(C)[C@@H]3CC[C@]12C`, the IC50 is over 100 µM.

For `CC1(C)CCC[C@](C)([C@H]2CC[C@]3(C)[C@@H]2[C@H](O)C[C@@H]2[C@@]4(C)Cc5cnc(N)nc5C(C)(C)[C@@H]4CC[C@]23C)O1`, the IC50 was 45.7 µM.

In the case of `CC(C)(O)CCC[C@@](C)(O)[C@H]1CC[C@]2(C)[C@@H]1[C@H](O)C[C@@H]1[C@@](C)(CC(=O)O)[C@H](C(C)(C)C(=O)O)CC[C@]12C`, the IC50 is over 100 µM.

For the compound `CC1(C)CCC[C@](C)([C@H]2CC[C@]3(C)[C@@H]2[C@H](O)C[C@@H]2[C@@]4(C)CCC(=O)C(C)(C)[C@@H]4CC[C@]23C)O1`, the IC50 was over 100 µM.

With `CC1(C)CCC[C@](C)([C@H]2CC[C@]3(C)[C@@H]2[C@H](O)C[C@@H]2[C@@]4(C)C=C(O)C(=O)C(C)(C)[C@@H]4CC[C@]23C)O1`, the IC50 came out at 50.1 µM.

As for `COC(C)(C)CCC[C@@](C)(O)[C@H]1CC[C@]2(C)[C@@H]1C(=O)C[C@@H]1[C@@]3(C)CCC(=O)C(C)(C)[C@@H]3CC[C@]12C`, the IC50 is over 100 µM.

The subject of the next assay is MCF7. As to the kind of experiment: cells. The class given is functional, cell-based. To be noted: Homo sapiens, MCF7, 48 h.
Description: Cytotoxicity against human MCF7 cells assessed as inhibition of cell proliferation after 48 hrs by MTT assay
`CC(C)(O)CCC[C@@](C)(O)[C@H]1CC[C@]2(C)[C@@H]1C(=O)C[C@@H]1[C@@]3(C)Cc4nccnc4C(C)(C)[C@@H]3CC[C@]12C` gave an IC50 of 39.1 µM.

`CC1(C)CCC[C@](C)([C@H]2CC[C@]3(C)[C@@H]2[C@H](O)C[C@@H]2[C@@]4(C)Cc5cnc(N)nc5C(C)(C)[C@@H]4CC[C@]23C)O1` displayed an IC50 of 27.9 µM.

Turning to `CC(C)(O)CCC[C@@](C)(O)[C@H]1CC[C@]2(C)[C@@H]1[C@H](O)C[C@@H]1[C@@](C)(CC(=O)O)[C@H](C(C)(C)C(=O)O)CC[C@]12C`, the half-maximal inhibitory concentration (IC50) is over 100 µM.

In the case of `CC1(C)CCC[C@](C)([C@H]2CC[C@]3(C)[C@@H]2[C@H](O)C[C@@H]2[C@@]4(C)CCC(=O)C(C)(C)[C@@H]4CC[C@]23C)O1`, the IC50 is 78.1 µM.

`CC1(C)CCC[C@](C)([C@H]2CC[C@]3(C)[C@@H]2[C@H](O)C[C@@H]2[C@@]4(C)C=C(O)C(=O)C(C)(C)[C@@H]4CC[C@]23C)O1` returned an IC50 of 23.6 µM.

Turning to `COC(C)(C)CCC[C@@](C)(O)[C@H]1CC[C@]2(C)[C@@H]1C(=O)C[C@@H]1[C@@]3(C)CCC(=O)C(C)(C)[C@@H]3CC[C@]12C`, the IC50 was found to be 98.5 µM.

Another assay deals with A549. As to the kind of experiment: Cytotoxicity against human A549 cells assessed as inhibition of cell proliferation after 48 hrs by MTT assay. The class given is functional, cell-based. To be noted: A549, 48 h.
For the compound `CC(C)(O)CCC[C@@](C)(O)[C@H]1CC[C@]2(C)[C@@H]1C(=O)C[C@@H]1[C@@]3(C)Cc4nccnc4C(C)(C)[C@@H]3CC[C@]12C`, the IC50 came out at 19.7 µM.

As for `CC1(C)CCC[C@](C)([C@H]2CC[C@]3(C)[C@@H]2[C@H](O)C[C@@H]2[C@@]4(C)Cc5cnc(N)nc5C(C)(C)[C@@H]4CC[C@]23C)O1`, the IC50 stood at 26.9 µM.

With `CC(C)(O)CCC[C@@](C)(O)[C@H]1CC[C@]2(C)[C@@H]1[C@H](O)C[C@@H]1[C@@](C)(CC(=O)O)[C@H](C(C)(C)C(=O)O)CC[C@]12C`, the IC50 was over 100 µM.

On to `CC1(C)CCC[C@](C)([C@H]2CC[C@]3(C)[C@@H]2[C@H](O)C[C@@H]2[C@@]4(C)CCC(=O)C(C)(C)[C@@H]4CC[C@]23C)O1`, for which the IC50 is over 100 µM.

With `CC1(C)CCC[C@](C)([C@H]2CC[C@]3(C)[C@@H]2[C@H](O)C[C@@H]2[C@@]4(C)C=C(O)C(=O)C(C)(C)[C@@H]4CC[C@]23C)O1`, the IC50 was found to be 40 µM.

As to `COC(C)(C)CCC[C@@](C)(O)[C@H]1CC[C@]2(C)[C@@H]1C(=O)C[C@@H]1[C@@]3(C)CCC(=O)C(C)(C)[C@@H]3CC[C@]12C`, the IC50 was over 100 µM.

The subject of the next assay is HeLa. The assay can be described thus: Cytotoxicity against human HeLa cells assessed as inhibition of cell proliferation after 48 hrs by MTT assay. The class given is functional, cell-based.
Conditions: not given
Turning to `CC(C)(O)CCC[C@@](C)(O)[C@H]1CC[C@]2(C)[C@@H]1C(=O)C[C@@H]1[C@@]3(C)Cc4nccnc4C(C)(C)[C@@H]3CC[C@]12C`, the IC50 is over 100 µM.

Turning to `CC1(C)CCC[C@](C)([C@H]2CC[C@]3(C)[C@@H]2[C@H](O)C[C@@H]2[C@@]4(C)Cc5cnc(N)nc5C(C)(C)[C@@H]4CC[C@]23C)O1`, the IC50 came to 69.4 µM.

On to `CC(C)(O)CCC[C@@](C)(O)[C@H]1CC[C@]2(C)[C@@H]1[C@H](O)C[C@@H]1[C@@](C)(CC(=O)O)[C@H](C(C)(C)C(=O)O)CC[C@]12C`, for which the IC50 was over 100 µM.

Regarding `CC1(C)CCC[C@](C)([C@H]2CC[C@]3(C)[C@@H]2[C@H](O)C[C@@H]2[C@@]4(C)CCC(=O)C(C)(C)[C@@H]4CC[C@]23C)O1`, the IC50 stood at 66.4 µM.

Take `CC1(C)CCC[C@](C)([C@H]2CC[C@]3(C)[C@@H]2[C@H](O)C[C@@H]2[C@@]4(C)C=C(O)C(=O)C(C)(C)[C@@H]4CC[C@]23C)O1`: the half-inhibitory concentration (IC50) came out at 25 µM.

As to `COC(C)(C)CCC[C@@](C)(O)[C@H]1CC[C@]2(C)[C@@H]1C(=O)C[C@@H]1[C@@]3(C)CCC(=O)C(C)(C)[C@@H]3CC[C@]12C`, the IC50 was over 100 µM.

The test system of a further assay is U-87 MG. As to the kind of experiment: Cytotoxicity against human U87 cells assessed as inhibition of cell proliferation after 48 hrs by MTT assay. The class given is functional, cell-based, U-87MG ATCC.
Conditions: not given
Turning to `CC(C)(O)CCC[C@@](C)(O)[C@H]1CC[C@]2(C)[C@@H]1C(=O)C[C@@H]1[C@@]3(C)Cc4nccnc4C(C)(C)[C@@H]3CC[C@]12C`, the IC50 was over 100 µM.

`CC1(C)CCC[C@](C)([C@H]2CC[C@]3(C)[C@@H]2[C@H](O)C[C@@H]2[C@@]4(C)Cc5cnc(N)nc5C(C)(C)[C@@H]4CC[C@]23C)O1`: the IC50 was determined as 82.6 µM.

In the case of `CC(C)(O)CCC[C@@](C)(O)[C@H]1CC[C@]2(C)[C@@H]1[C@H](O)C[C@@H]1[C@@](C)(CC(=O)O)[C@H](C(C)(C)C(=O)O)CC[C@]12C`, the IC50 is over 100 µM.

In the case of `CC1(C)CCC[C@](C)([C@H]2CC[C@]3(C)[C@@H]2[C@H](O)C[C@@H]2[C@@]4(C)CCC(=O)C(C)(C)[C@@H]4CC[C@]23C)O1`, the IC50 worked out at 90 µM.

Consider `CC1(C)CCC[C@](C)([C@H]2CC[C@]3(C)[C@@H]2[C@H](O)C[C@@H]2[C@@]4(C)C=C(O)C(=O)C(C)(C)[C@@H]4CC[C@]23C)O1`, for which the IC50 is 20.2 µM.

Regarding `COC(C)(C)CCC[C@@](C)(O)[C@H]1CC[C@]2(C)[C@@H]1C(=O)C[C@@H]1[C@@]3(C)CCC(=O)C(C)(C)[C@@H]3CC[C@]12C`, the IC50 was over 100 µM.

System in a further assay: not listed separately
The assay can be described thus: Cytotoxicity against human IOSE-144 cells assessed as inhibition of cell proliferation after 48 hrs by MTT assay. As to conditions: IOSE-144, 48 h. The format is cell-based.
For `CC(C)(O)CCC[C@@](C)(O)[C@H]1CC[C@]2(C)[C@@H]1C(=O)C[C@@H]1[C@@]3(C)Cc4nccnc4C(C)(C)[C@@H]3CC[C@]12C`, the IC50 is over 100 µM.

Turning to `CC1(C)CCC[C@](C)([C@H]2CC[C@]3(C)[C@@H]2[C@H](O)C[C@@H]2[C@@]4(C)Cc5cnc(N)nc5C(C)(C)[C@@H]4CC[C@]23C)O1`, the IC50 is over 100 µM.

Turning to `CC(C)(O)CCC[C@@](C)(O)[C@H]1CC[C@]2(C)[C@@H]1[C@H](O)C[C@@H]1[C@@](C)(CC(=O)O)[C@H](C(C)(C)C(=O)O)CC[C@]12C`, the IC50 was over 100 µM.

For `CC1(C)CCC[C@](C)([C@H]2CC[C@]3(C)[C@@H]2[C@H](O)C[C@@H]2[C@@]4(C)CCC(=O)C(C)(C)[C@@H]4CC[C@]23C)O1`, the IC50 is over 100 µM.

For `CC1(C)CCC[C@](C)([C@H]2CC[C@]3(C)[C@@H]2[C@H](O)C[C@@H]2[C@@]4(C)C=C(O)C(=O)C(C)(C)[C@@H]4CC[C@]23C)O1`, the IC50 is over 100 µM.

`COC(C)(C)CCC[C@@](C)(O)[C@H]1CC[C@]2(C)[C@@H]1C(=O)C[C@@H]1[C@@]3(C)CCC(=O)C(C)(C)[C@@H]3CC[C@]12C`: the IC50 is over 100 µM.
